# According to publication PMC10428205, “Cytotoxicity of Ruthenium(II) Arene Complexes Containing Functionalized Ferrocenyl β-Diketonate Ligands” (Organometallics, 2023):
# Legend:
# Type in all cases: cell-based, human
# HCT116 p53+/+ = assay: 96 h MTT chemosensitivity assay
# Experimental: (§1) LogP = Log ( [C]final ) Eqn1
# (§2) 96 h Chemosensitivity Studies
# (§3) In vitro chemosensitivity tests were performed at both the University of Huddersfield and the Institute of Cancer Therapeutics, Bradford, in a sterile Class II Biological Safety Cabinet fitted with a HEPA filtered laminar airflow.
# (§4) Cellular assays were conducted against human pancreatic carcinoma (MIA PaCa-2), human colorectal carcinoma p53-wildtype (HCT116 p53+/+), and human non-cancerous epithelial retinal cells (ARPE-19). The ARPE-19 cells were obtained from the American Type Culture Collection and provided by the University of Huddersfield. All cell lines were routinely maintained as monolayer cultures in appropriate complete medium and maintained in either T-25 or T-75 flasks at 37 °C and 5% CO2. MIA PaCa-2 and ARPE-19 cells were cultured in high glucose DMEM-F12 medium containing 10% foetal calf serum, and HCT116 p53+/+ was cultured in RPMI 1640 supplemented with 10% foetal calf serum. All medium was supplemented with sodium pyruvate (1 mM) and L-glutamine (2 mM), and prior to chemosensitivity studies, cell monolayers were passaged using Trypsin-EDTA and diluted to a concentration of 1 x 10^4 cells/mL. All assays were conducted using 96-well plates, in which 100 mL of the 1 x 10^4 cells/mL cell suspension was added to each well and incubated for 24 h at 37 °C and 5% CO2. After 24 h, 100 mL of drug dilutions (fresh 100 mM stock solutions in DMSO) in media were added to the plates and then incubated for a further 96 h at 37°C and 5% CO2 (48 h + 48 h recovery period were used for the shorter exposures with MIA PaCa-2 cells only). After 96 h, 20 mL MTT (3-(4,5-dimethylthiazol-2-yl)-2,5-diphenyltetrazolium bromide, 5 mg/mL) was added to each well and incubated for 3 h at 37 °C and 5% CO2. All solutions were then removed from the 96-well plates via pipette and 150 mL of DMSO added to each well to dissolve the purple formazan crystals. After mixing well, the absorbance of each well was measured at 540 nm using a ThermoFisher Multiskan FC spectrophotometer microplate reader. Using the blank and 100% cell controls, the % cell viability was determined [(abs. of compound containing wells – abs. media wells)/(abs. 100% cell suspension well control)] and from this the % cell death (100%- % cell viability) was calculated. On a logarithmic scale, the percentage cell death was plotted against the concentration of compound, and from this the half maximal inhibitory concentration (IC50) value was determined. Each of the experiments were performed in triplicate with mean values being stated as the IC50 ± Standard Deviation (SD). […]
# All assays were conducted in triplicate.
# ARPE-19 = assay: 96 h MTT chemosensitivity assay, normal cells; settings: normal retinal epithelial cells, ± SD, read-out: IC50 against ARPE-19
# Experimental: as §1, §2, §3
# as §4, with “After 24 h, 100 mL of drug dilutions (fresh 100 mM stock solutions in DMSO) in media were added to the plates and then incubated for a further 96 h at 37°C and 5% CO2 (48 h + 48 h recovery period were used for the shorter exposures with MIA PaCa-2 cells only). After 96 h, 20 mL MTT (3-(4,5-dimethylthiazol-2-yl)-2,5-diphenyltetrazolium bromide, 5 mg/mL) was added to each well and incubated for 3 h at 37 °C and 5% CO2. All solutions were then removed from the 96-well plates via pipette and 150 mL of DMSO added to each well to dissolve the purple formazan crystals.” left out, “determined.” for “determined. Each of the experiments were performed in triplicate with mean values being stated as the IC50 ± Standard Deviation (SD).”
# MIA PaCa-2 = assay: Chemosensitivity under hypoxic conditions (0.1% O2, 96 h MTT)
# Experimental: as §1, §2, §3
# as §4, with “After 24 h, 100 mL of drug dilutions (fresh 100 mM stock solutions in DMSO) in media were added to the plates and then incubated for a further 96 h at 37°C and 5% CO2 (48 h + 48 h recovery period were used for the shorter exposures with MIA PaCa-2 cells only). After 96 h, 20 mL MTT (3-(4,5-dimethylthiazol-2-yl)-2,5-diphenyltetrazolium bromide, 5 mg/mL) was added to each well and incubated for 3 h at 37 °C and 5% CO2. All solutions were then removed from the 96-well plates via pipette and 150 mL of DMSO added to each well to dissolve the purple formazan crystals.” left out, “determined.” for “determined. Each of the experiments were performed in triplicate with mean values being stated as the IC50 ± Standard Deviation (SD).”
compound,measurement,setting,value
"[NH2][Pt]([NH2])([Cl])[Cl] [CDDP, cisplatin, reference compound]","Selectivity index (SI), IC50 ARPE-19 / IC50 HCT116 p53+/+","HCT116 p53+/+; 96 h, * = minimum value as at least one IC50 > 100",1.8
same,IC50,"HCT116 p53+/+; 96 h MTT, ± SD, read-out: IC50 against HCT116 p53+/+",3.3 ± 0.4 µM
same,IC50,ARPE-19,6 ± 1 µM
same,IC50,"MIA PaCa-2; MIA PaCa-2, 0.1% O2, 96 h MTT",> 50 µM
same,fold loss of activity from normoxic to hypoxic conditions,"MIA PaCa-2; MIA PaCa-2, 21% vs 0.1% O2",> 14 fold
